Assays:
[1] = Stability in buffer at various pH values (HPLC); assay type: physicochemical; details: buffer pH 4, 37° C., acetonitrile/buffer
Procedure: 0.25 mg of the test substance is weighed into a 2 ml HPLC vial and 0.5 ml of acetonitrile is added. The substance is dissolved by putting the sample vessel in an ultrasonic bath for about 10 seconds. Then 0.5 ml of the respective buffer solution is added, and the sample is again treated in the ultrasonic bath.
pH 4.0:1 liter of Millipore water is adjusted to pH 4.0 with 1 N hydrochloric acid;
pH 7.4: 90 g of sodium chloride, 13.61 g of potassium dihydrogen phosphate and 83.35 g of 1 M sodium hydroxide solution are made up to 1 liter with Millipore water and then diluted 1:10.
10 μl portions of the test solution are analyzed by HPLC for their content of unchanged test substance every hour over a period of 24 hours at 37° C. The percentage areas of the appropriate peaks are used for quantification.
Agilent 1100 with DAD (G1314A), binary pump (G1312A), autosampler (G1329A), column oven (G1316A), thermostat (G1330A); column: Kromasil 100 C18, 125 mm×4 mm, 5 μm; column temperature: 30° C.; mobile phase A: water+5 ml of perchloric acid/liter, mobile phase B: acetonitrile.

[2] = In vitro stability in human plasma (HPLC detection); assay type: in vitro ADME; details: 37° C., read-out: half-life of degradation with release of the active ingredient compound (A)
Procedure: (§1) c) In Vitro Stability in Rat Plasma and Human Plasma (HPLC Detection):
(§2) 0.5 mg of substance is dissolved in 1 ml of dimethyl sulfoxide/water 1:1. 500 μl of this sample solution are mixed with 500 μl of rat plasma at 37° C. and shaken. A first sample (10 μl) is immediately taken for HPLC analysis. In the period up to 2 h after the start of incubation, further aliquots are taken after 2, 5, 10, 30, 60 and 90 min, and the contents of the respective test substance and of the active ingredient compound (A) liberated therefrom are determined.
(§3) Agilent 1100 with DAD (G1314A), binary pump (G1312A), autosampler (G1329A), column oven (G1316A), thermostat (G1330A); column: Kromasil 100 C18, 250 mm×4.6 mm, 5 μm; column temperature: 30° C.; mobile phase A: water+5 ml of perchloric acid/liter, mobile phase B: acetonitrile.

[3] = In vitro stability in rat plasma (HPLC detection); assay type: in vitro ADME; details: 37° C., read-out: half-life of degradation with release of the active ingredient compound (A)
Procedure: as §1, §2, §3

time stable in solution at pH 4 [1]: more than 16 h
half-life at 0.25 mg/mL [2]: < 2 min
half-life at 0.25 mg/mL [3]: < 2 min
SMILES: CCCCNCCCC(=O)N(C[C@H]1CN(c2ccc(N3CCOCC3=O)cc2F)C(=O)O1)C(=O)c1ccc(Cl)s1 [Example 22, N-[4-(Butylamino)butanoyl]-5-chloro-N-({(5S)-2-oxo-3-[2-fluoro-4-(3-oxomorpholin-4-yl)phenyl]-1,3-oxazolidin-5-yl}methyl)thiophene-2-carboxamide]
